In patent US20220025331A1, “METHODS AND SYSTEMS FOR IMPROVING CELLS FOR USE IN THERAPY” (priority 2017, published 2022):
Blank lines part the entries; values can stand above or below the compound they belong to.

What was measured:
P3R foAC neocartilage [1] = assay: Phase 2: cytochalasin D and hyaluronidase treatment of P3R (passaged, redifferentiated) neocartilage; assay type: cell-based, sheep; conditions: for neocartilage thickness / neocartilage wet weight / construct diameter: P3R Opt; for construct diameter: Cyto D 2 μM first 48 hours, Hya 200 units/mL at seeding
Procedure: (§1) Chondrocyte Isolation: Fetal ovine articular chondrocytes (foACs) were harvested from the patellofemoral surfaces of 120-day gestation Dorper cross sheep obtained as medical waste (UC Davis School of Veterinary Medicine). Cartilage from the whole surface of both condyles and the trochlear groove was minced into approximately 1 mm^3 pieces, then washed and centrifuged (500 G for 5 minutes) three times with Dulbecco's Modified Eagle Medium containing 4.5 g/L glucose and GlutaMAX (DMEM; Gibco) and 2% (v/v) penicillin/streptomycin/fungizone (PSF; Lonza). The tissue was digested in 0.2% (w/v) collagenase type II (Worthington) in DMEM containing 3% (v/v) fetal bovine serum (FBS; Atlanta Biologicals) for 18 hours at 37° C. with gentle rocking. After digestion, the resultant cell solutions were filtered through 70 μm cell strainers. For Studies 1-3, foACs were washed with ACK buffer (154.4 mM ammonium chloride (Sigma), 10 mM potassium bicarbonate (Fisher Scientific), 50 mM EDTA tetrasodium salt (Acros Organics) in ultrapure water for three minutes as previously described. These primary (P0) foACs were then frozen in DMEM with 20% (v/v) DMSO (Sigma) and 10% (v/v) FBS.
(§2) Chondrocyte Expansion and Redifferentiation: Previously frozen P0 foACs were seeded in T-225 flasks at 1.5×10^4 cells/cm^2 and expanded in chemically defined chondrogenic medium (CHG medium) (DMEM containing 1% PSF, 1% ITS+ premix (BD Biosciences), 1% non-essential amino acids (Gibco), 100 nM dexamethasone (Sigma), 50 mg/mL ascorbate-2-phosphate (Sigma), 40 g/mL L-proline (Sigma), and […] sodium pyruvate (Sigma)) with 2% FBS and chondrogenically tuned TFP supplementation (1 ng/mL TGF-μ1, 5 ng/mL bFGF, 10 ng/mL PDGF; al from PeproTech). Media was exchanged every 2-3 days. At confluence, cells were lifted with 0.5% Trypsin-EDTA (Gibco) for 5 minutes followed by digestion of the cell layers with DMEM containing 0.2% collagenase type II and 2% FBS for approximately 1 hour at 37° C., triturating every 20 minutes. The resulting cell solution was filtered through a 70 μm cell strainer and reseeded into T-225 flasks to achieve three passages (P3). P3 foACs underwent aggregate redifferentiation (P3R) as previously described. Briefly, 750,000 cells/mL CHG medium containing TGB supplementation (10 ng/mL TGF-β1, 100 ng/mL GDF-5, 100 ng/mL BMP-2; al from PeproTech) were cultured in 100 mm×20 mm petri dishes coated with 1% (w/v) molecular biology grade agarose (Thermo Fisher Scientific) made with phosphate buffered saline (PBS; Sigma) to create a non-adherent environment. Aggregate cultures were maintained on an orbital shaker at 60 rpm for the first 3 days and remained static for the remainder of the 14-day redifferentiation period. Media was exchanged every 2-3 days. At the end of the culture period, aggregates were digested with 0.5% Trypsin-EDTA for 20 minutes, followed by 0.2% collagenase in DMEM with 2% FBS for approximately 2 hours at 37° C., triturating every 20 minutes. Following dissociation of the aggregates, cells were filtered through a 70 μm cell strainer and counted.
(§3) Neocartilage Construct Seeding and Culture: P0, P3, or P3R foACs were self-assembled into engineered neocartilage constructs in non-adherent agarose wells. A sterile stainless steel mold consisting of 5 mm diameter cylindrical posts was inserted into a 48-well plate, each well containing 1 mL molten 2% (w/v) agarose to create a single agarose well per plate well. After solidification of the agarose at room temperature, the mold was removed. Agarose wells were filled with CHG medium exchanged twice over the course of 5 days to ensure saturation of the agarose before seeding. For each phase, cells were seeded into 5 mm agarose wells in 100 μL CHG medium per well. In Phase 1, P0 or P3R foACs were each seeded at five densities: 2, 3, 4, 5, and 6 million cells per construct. In Phase 2, P3 and P3R foACs were seeded at 2 million cells per construct. In Phase 3, 2 million P3R foACs were seeded. […]

P3 foAC neocartilage = assay: Phase 2: cytochalasin D and hyaluronidase treatment of P3 (passaged, not redifferentiated) neocartilage; assay type: cell-based, sheep; conditions: P3, 2 million cells/construct; for construct diameter: Cyto D 2 μM first 48 hours, Hya 200 units/mL at seeding
Procedure: as §1, §2, §3

[2] = test system: adult human costal chondrocytes (ahCCs); assay: Cyto D treatment of self-assembled neocartilage from human costal chondrocytes (FIG. 18); assay type: cell-based; conditions: ahCCs P3 rejuvenated, 2 million cells, 2 μM at day 0-2
Procedure: Control constructs were untreated. Constructs treated with cytochalasin D (Cyto D) were treated with 2 μM at day 0-2. […] This example clearly illustrates that it is not obvious that a treatment that is beneficial for cells from one species will be beneficial when applied to cells from another species.

P3 and P3R foACs = assay: Chondrocyte F-actin visualization (phalloidin staining); assay type: cell-based, sheep
Procedure: Chondrocyte Actin Visualization: In Phase 2, to visualize the effects of cytochalasin D treatment on cytoskeletal-mediated chondrogenic redifferentiation, F-actin staining was performed on untreated P0 foACs and both cytochalasin D treated and untreated P3 and P3R foACs. Approximately 8×10^3 cells/cm^2 were allowed to attach to glass slides for 1 hour in the presence of 2% FBS. Non-adherent cells were washed away with two exchanges of PBS, followed by the fixation of attached cells in 3.9% formaldehyde in PBS for 10 minutes. After another two washes with PBS, fixed cells were permeabilized with 0.1% Triton-X 100 (Sigma) in PBS for 5 minutes. Following two washes with PBS, cells were stained with CF594-conjugated phalloidin (Biotium; 1200 dilution in PBS) for 30 minutes. Excess stain was washed away with two exchanges of PBS and the cells were counterstained with DAPI-containing Vectashield (Vector Laboratories) and coverslipped for visualization using a Texas Red fluorescent channel.

P3R foAC neocartilage [3] = assay: Phase 3: TCL treatment of cytochalasin D treated P3R Opt neocartilage; assay type: cell-based, sheep; conditions: Phase 3, P3R Opt, 2 million cells
Procedure: as §1
Chondrocyte Expansion and Redifferentiation: Previously frozen P0 foACs were seeded in T-225 flasks at 1.5×10^4 cells/cm^2 and expanded in chemically defined chondrogenic medium (CHG medium) (DMEM containing 1% PSF, 1% ITS+ premix (BD Biosciences), 1% non-essential amino acids (Gibco), 100 nM dexamethasone (Sigma), 50 mg/mL ascorbate-2-phosphate (Sigma), 40 g/mL L-proline (Sigma), and […] sodium pyruvate (Sigma)) with 2% FBS and chondrogenically tuned TFP supplementation (1 ng/mL TGF-μ1, 5 ng/mL bFGF, 10 ng/mL PDGF; al from PeproTech). Media was exchanged every 2-3 days. At confluence, cells were lifted with 0.5% Trypsin-EDTA (Gibco) for 5 minutes followed by digestion of the cell layers with DMEM containing 0.2% collagenase type II and 2% FBS for approximately 1 hour at 37° C., triturating every 20 minutes. […] Following dissociation of the aggregates, cells were filtered through a 70 μm cell strainer and counted. […]

[4] = P3R Opt neocartilage, over the untreated group
[5] = cytochalasin D treated P3R Opt neocartilage
[6] = foACs P3 rejuvenated, 2 million cells, 2 μM at day 0-2, FIG. 18

- neocartilage thickness (P3R foAC neocartilage [1]; 2 million cells/construct): 0.8±0.2 mm
- neocartilage wet weight (P3R foAC neocartilage [1]; 2 million cells/construct): 23.9 ± 1.4 mg
- construct diameter (P3R foAC neocartilage [1]; 2 million cells/construct): 5.9±0.0 mm
- neocartilage thickness (P3 foAC neocartilage): 2.0±0.2 mm
- neocartilage wet weight (P3 foAC neocartilage): 6.7 ± 0.4 mg
- construct diameter (P3 foAC neocartilage): 2.6±0.1 mm
Compound: hyaluronidase

Compound: C=C1[C@@H](C)[C@H]2[C@H](Cc3ccccc3)NC(=O)[C@]23[C@H](OC(C)=O)/C=C/[C@@](C)(O)C(=O)[C@@H](C)C/C=C/[C@H]3[C@@H]1O [cytochalasin D]
- aggregate modulus [2]: significantly decreased
- shear modulus [2]: significantly decreased
- actin arrangement (P3 and P3R foACs; P3R chondrocytes): localized more of the actin cortically than in untreated P3R cells
- cell shape and actin arrangement (P3 and P3R foACs; P3 chondrocytes): induced a rounded cell shape
- increase of aggregate modulus over the P0 control (P3R foAC neocartilage [1]; ACK treated P3R cells, 2 million cells/construct, vs untreated P0 control): 9.6 fold
- neocartilage aggregate modulus (P3R foAC neocartilage [1]; ACK treated P3R chondrocytes seeded at 2 million cells/construct): 400 kPa
- increase in compressive stiffness (aggregate modulus) (P3R foAC neocartilage [1]; [4]): 0.9 fold
- increase in tensile stiffness (P3R foAC neocartilage [1]; [4]): 1.0 fold
- increase in tensile strength (P3R foAC neocartilage [1]; [4]): 2.7 fold
- neocartilage thickness (P3R foAC neocartilage [1]; 2 million cells/construct): 0.7±0.1 mm
- neocartilage wet weight (P3R foAC neocartilage [1]; 2 million cells/construct): 28.1 ± 2.6 mg
- construct diameter (P3R foAC neocartilage [1]; 2 million cells/construct): 6.5±0.2 mm
- GAG/wet weight (P3R foAC neocartilage [1]; P3R neocartilage, FIG. 8C): increased
- functionality index (FI) with respect to native fetal cartilage (P3R foAC neocartilage [1]; [5]): 1.1
- functionality index (FI) with respect to native juvenile cartilage (P3R foAC neocartilage [1]; [5]): 0.83
- compressive aggregate modulus (P3R foAC neocartilage [1]; [6]): significantly increased
- shear modulus (P3R foAC neocartilage [1]; [6]): significantly increased
- neocartilage thickness (P3 foAC neocartilage): 0.4±0.1 mm
- neocartilage wet weight (P3 foAC neocartilage): 8.4 ± 1.0 mg
- construct diameter (P3 foAC neocartilage): 3.7±0.2 mm
- neocartilage diameter (P3R foAC neocartilage [3]): 6.5±0.4 mm
- neocartilage thickness (P3R foAC neocartilage [3]): 0.8±0.2 mm
- neocartilage wet weight (P3R foAC neocartilage [3]): 87.1 ± 3.6 mg
